From PubChem BioAssay AID330 (DTP/NCI, 2004)
Where “and” joins values, the source holds several entries; their conditions need not be identical. Identical values can stand only once. Inconclusive results and toxic doses are left out.

Tested on: P388 leukemia ip, CD2F1 mice, survival T/C
Assay: NCI In Vivo Anticancer Drug Screen. Data for tumor model P388 Leukemia (intraperitoneal) in CD2F1 (CDF1) mice
Conditions: endpoint: median survival time, higher = longer survival
Procedure, shortened: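 Mice carrying the transplanted tumor received test compound or vehicle. Survival was recorded in each group, and the value is the treated-group measurement divided by that of the vehicle-treated control group.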

[1] = dose: 100.0 mg/kg/injection, schedule: Q04DX003 (ip), vehicle: saline with Tween-80
[2] = dose: 200.0 mg/kg/injection, schedule: Q04DX003 (ip), vehicle: saline with Tween-80
[3] = dose: 400.0 mg/kg/injection, schedule: Q04DX003 (ip), vehicle: saline with Tween-80
[4] = dose: 50.0 mg/kg/injection, schedule: Q01DX005 (ip), vehicle: saline with Tween-80
[5] = dose: 100.0 mg/kg/injection, schedule: Q01DX005 (ip), vehicle: saline with Tween-80
[6] = dose: 100.0 mg/kg/injection, schedule: Q01DX009 (ip), vehicle: saline with Tween-80
[7] = dose: 200.0 mg/kg/injection, schedule: Q01DX005 (ip), vehicle: saline with Tween-80
[8] = dose: 60.0 mg/kg/injection, schedule: Q01DX005 (ip), vehicle: saline with Tween-80
[9] = dose: 120.0 mg/kg/injection, schedule: Q01DX005 (ip), vehicle: saline with Tween-80
[10] = dose: 240.0 mg/kg/injection, schedule: Q01DX005 (ip), vehicle: saline with Tween-80

## O=C(/C(=C/c1ccccc1)c1ccc(Cl)cc1)c1ccccc1
[1]
  T/C: 116 % of control
[2]
  T/C: 100 % of control
[3]
  T/C: 103 % of control

## COc1ccccc1Cc1c(OC)cc(OC)c(C(=O)CCc2ccccc2)c1O
dose: 3.2 mg/kg/injection, schedule: Q01DX009 (ip), vehicle: other
  T/C: 100 % of control
dose: 4.3 mg/kg/injection, schedule: Q01DX009 (ip), vehicle: other
  T/C: 110 % of control
dose: 6.4 mg/kg/injection, schedule: Q01DX009 (ip), vehicle: other
  T/C: 100 % of control and 105 % of control
dose: 9.6 mg/kg/injection, schedule: Q01DX009 (ip), vehicle: other
  T/C: 114 % of control and 97 % of control
dose: 14.0 mg/kg/injection, schedule: Q01DX009 (ip), vehicle: other
  T/C: 89 % of control
dose: 28.0 mg/kg/injection, schedule: Q01DX009 (ip), vehicle: other
  T/C: 91 % of control

## NCC1CCC(C(=O)O)CC1 (centres undefined)
[4]
  T/C: 94 % of control
[5]
  T/C: 92 % of control
[6]
  T/C: 99 % of control
[7]
  T/C: 100 % of control
dose: 200.0 mg/kg/injection, schedule: Q01DX009 (ip), vehicle: saline with Tween-80
  T/C: 101 % of control
dose: 400.0 mg/kg/injection, schedule: Q01DX005 (ip), vehicle: saline with Tween-80
  T/C: 103 % of control
dose: 400.0 mg/kg/injection, schedule: Q01DX009 (ip), vehicle: saline with Tween-80
  T/C: 100 % of control
dose: 800.0 mg/kg/injection, schedule: Q01DX005 (ip), vehicle: saline with Tween-80
  T/C: 89 % of control

## O=[N+]([O-])c1ccc2c(N=Nc3ccc4ccccc4c3O)c(O)cc(S(=O)(=O)O)c2c1
[6]
  T/C: 90 % of control
[1]
  T/C: 95 % of control
[2]
  T/C: 100 % of control
[3]
  T/C: 100 % of control

## N=C(N)SC1C=C(O)C=C(c2c(O)c(=O)oc3ccccc23)C1=O (centres undefined)
[4]
  T/C: 104 % of control
[5]
  T/C: 103 % of control
[7]
  T/C: 88 % of control

## c1ccc2c(c1)oc1cc3c(cc12)nnc1cccn13
dose: 25.0 mg/kg/injection, schedule: Q01DX005 (ip), vehicle: Klucel (hydroxypropylcellulose) (HPC)
  T/C: 100 % of control
dose: 50.0 mg/kg/injection, schedule: Q01DX005 (ip), vehicle: Klucel (hydroxypropylcellulose) (HPC)
  T/C: 96 % of control
dose: 100.0 mg/kg/injection, schedule: Q01DX005 (ip), vehicle: Klucel (hydroxypropylcellulose) (HPC)
  T/C: 92 % of control
dose: 200.0 mg/kg/injection, schedule: Q01DX005 (ip), vehicle: Klucel (hydroxypropylcellulose) (HPC)
  T/C: 86 % of control

## CC(=O)N1CCN(c2ccc(OCC3COC(Cn4ccnc4)(c4ccc(Cl)cc4Cl)O3)cc2)CC1 (centres undefined)
dose: 50.0 mg/kg/injection, schedule: Q01DX009 (ip), vehicle: saline with Tween-80
  T/C: 88 % of control
[6]
  T/C: 87 % of control

## O=c1[nH]c2c([N+](=O)[O-])cccc2nc1/C=C(\O)c1cccc([N+](=O)[O-])c1
dose: 7.5 mg/kg/injection, schedule: Q01DX005 (ip), vehicle: Klucel + Tween-80
  T/C: 94 % of control
dose: 15.0 mg/kg/injection, schedule: Q01DX005 (ip), vehicle: Klucel + Tween-80
  T/C: 94 % of control
dose: 30.0 mg/kg/injection, schedule: Q01DX005 (ip), vehicle: Klucel + Tween-80
  T/C: 88 % of control

## COC(=O)C1(CC(=O)c2cc(Cl)ccc2Cl)NC(=S)NC(=O)C1C#N (centres undefined)
[8]
  T/C: 94 % of control
[9]
  T/C: 92 % of control
[10]
  T/C: 95 % of control

## CN(C)CCN1C(=O)C2(C)C3CCC(O3)C2(C)C1=O (centres undefined)
[4]
  T/C: 103 % of control
[5]
  T/C: 100 % of control
[7]
  T/C: 100 % of control

## CCOC(=O)/C(NC(=O)c1ccccc1)=C(\NC(=O)c1ccccc1)C(=O)OCC
dose: 60.0 mg/kg/injection, schedule: Q01DX005 (ip), vehicle: saline
  T/C: 104 % of control
dose: 120.0 mg/kg/injection, schedule: Q01DX005 (ip), vehicle: saline
  T/C: 96 % of control
dose: 240.0 mg/kg/injection, schedule: Q01DX005 (ip), vehicle: saline
  T/C: 96 % of control

## O=C(O)/C(O)=C/c1ccccc1
dose: 25.0 mg/kg/injection, schedule: Q04DX003 (ip), vehicle: saline with Tween-80
  T/C: 102 % of control
[2]
  T/C: 111 % of control

## N#CCC(=O)NCc1ccncc1
dose: 25.0 mg/kg/injection, schedule: Q01DX009 (ip), vehicle: saline
  T/C: 110 % of control
dose: 50.0 mg/kg/injection, schedule: Q01DX009 (ip), vehicle: saline
  T/C: 100 % of control
dose: 100.0 mg/kg/injection, schedule: Q01DX009 (ip), vehicle: saline
  T/C: 108 % of control
dose: 200.0 mg/kg/injection, schedule: Q01DX009 (ip), vehicle: saline
  T/C: 110 % of control
dose: 400.0 mg/kg/injection, schedule: Q01DX009 (ip), vehicle: saline
  T/C: 101 % of control

## O=C1C=CC(=O)N1c1ccc(Cl)cc1
dose: 1.0 mg/kg/injection, schedule: Q01DX009 (ip), vehicle: Klucel (hydroxypropylcellulose) (HPC)
  T/C: 107 % of control
dose: 1.25 mg/kg/injection, schedule: Q01DX009 (ip), vehicle: Klucel (hydroxypropylcellulose) (HPC)
  T/C: 93 % of control
dose: 2.0 mg/kg/injection, schedule: Q01DX009 (ip), vehicle: Klucel (hydroxypropylcellulose) (HPC)
  T/C: 104 % of control
dose: 2.5 mg/kg/injection, schedule: Q01DX009 (ip), vehicle: Klucel (hydroxypropylcellulose) (HPC)
  T/C: 96 % of control
dose: 4.0 mg/kg/injection, schedule: Q01DX009 (ip), vehicle: Klucel (hydroxypropylcellulose) (HPC)
  T/C: 104 % of control
dose: 5.0 mg/kg/injection, schedule: Q01DX009 (ip), vehicle: Klucel (hydroxypropylcellulose) (HPC)
  T/C: 89 % of control
dose: 8.0 mg/kg/injection, schedule: Q01DX009 (ip), vehicle: Klucel (hydroxypropylcellulose) (HPC)
  T/C: 102 % of control
dose: 10.0 mg/kg/injection, schedule: Q01DX009 (ip), vehicle: Klucel (hydroxypropylcellulose) (HPC)
  T/C: 93 % of control

## COc1ccc2[nH]c3c(c2c1)C(c1ccccc1)c1ccccc1-3 (centres undefined)
dose: 12.5 mg/kg/injection, schedule: Q01DX005 (ip), vehicle: saline with Tween-80
  T/C: 100 % of control
dose: 25.0 mg/kg/injection, schedule: Q01DX005 (ip), vehicle: saline with Tween-80
  T/C: 88 % of control
[4]
  T/C: 90 % of control

## O=C1C2=C(Nc3cc([N+](=O)[O-])ccc3N2)OC1c1c2ccccc2cc2ccccc12 (centres undefined)
dose: 60.0 mg/kg/injection, schedule: Q01DX005 (ip), vehicle: Klucel (hydroxypropylcellulose) (HPC)
  T/C: 94 % of control
dose: 120.0 mg/kg/injection, schedule: Q01DX005 (ip), vehicle: Klucel (hydroxypropylcellulose) (HPC)
  T/C: 88 % of control

## COc1cc(C(c2cc3c(cc2OC(C)=O)OCO3)C(C(C)=O)C(C)=O)cc(OC)c1OC (centres undefined)
[8]
  T/C: 106 % of control
[9]
  T/C: 98 % of control
[10]
  T/C: 121 % of control

## COc1cccc2c1C(=O)c1c(O)c3c(c(O)c1C2=O)CC(O)(/C(C)=N/NC(=O)CCCCCCC(=O)N/N=C(\C)C1(O)Cc2c(O)c4c(c(O)c2C(OC2CC(N)C(O)C(C)O2)C1)C(=O)c1c(OC)cccc1C4=O)CC3OC1CC(N)C(O)C(C)O1 (centres undefined)
dose: 2.0 mg/kg/injection, schedule: Q01DX009 (ip), vehicle: water
  T/C: 162 % of control
dose: 4.0 mg/kg/injection, schedule: Q01DX009 (ip), vehicle: water
  T/C: 212 % of control
dose: 8.0 mg/kg/injection, schedule: Q01DX009 (ip), vehicle: water
  T/C: 245 % of control
dose: 16.0 mg/kg/injection, schedule: Q01DX009 (ip), vehicle: water
  T/C: 87 % of control

## O=[N+]([O-])c1ccc(C2=C[P+](c3ccccc3)(c3ccccc3)c3ccccc3O2)cc1
dose: 0.78 mg/kg/injection, schedule: Q01DX005 (ip), vehicle: Klucel (hydroxypropylcellulose) (HPC)
  T/C: 106 % of control
dose: 1.56 mg/kg/injection, schedule: Q01DX005 (ip), vehicle: Klucel (hydroxypropylcellulose) (HPC)
  T/C: 115 % of control
dose: 3.12 mg/kg/injection, schedule: Q01DX005 (ip), vehicle: Klucel (hydroxypropylcellulose) (HPC)
  T/C: 117 % of control
dose: 6.25 mg/kg/injection, schedule: Q01DX005 (ip), vehicle: Klucel (hydroxypropylcellulose) (HPC)
  T/C: 112 % of control

## CC(CCC(=O)O)(c1ccc(OC(=O)Nc2ccc(Br)cc2)cc1)c1ccc(OC(=O)Nc2ccc(Br)cc2)cc1
[4]
  T/C: 102 % of control
[5]
  T/C: 97 % of control
[7]
  T/C: 100 % of control

## O=C1[C@@H]2[C@H](C(=O)N1c1ccccc1)[C@H]1CC[C@H]2N1C(=O)c1ccccc1
[8]
  T/C: 96 % of control
[9]
  T/C: 100 % of control
[10]
  T/C: 88 % of control

## Cc1noc(N)c1Sc1ccc(Br)cc1
[4]
  T/C: 91 % of control
[5]
  T/C: 100 % of control
[7]
  T/C: 108 % of control

## COc1cc[n+](CC(=O)c2c[nH]c3ccccc23)cc1
dose: 50.0 mg/kg/injection, schedule: Q01DX009 (ip), vehicle: Klucel (hydroxypropylcellulose) (HPC)
  T/C: 103 % of control
dose: 100.0 mg/kg/injection, schedule: Q01DX009 (ip), vehicle: Klucel (hydroxypropylcellulose) (HPC)
  T/C: 109 % of control
